{
  "source": "ChEMBL document CHEMBL1126414",
  "about": "“Dopamine receptor binding properties of some 2,3,4,5-tetrahydro-1H-3-benzazepine-7-ols with non-aromatic substituents in the 5-position” (Bioorg Med Chem Lett, 1992)",
  "key": {"D(2) dopamine receptor": {"target": "D(2) dopamine receptor (Rattus norvegicus, UniProt P61169)", "sequence (P61169 whole entry)": "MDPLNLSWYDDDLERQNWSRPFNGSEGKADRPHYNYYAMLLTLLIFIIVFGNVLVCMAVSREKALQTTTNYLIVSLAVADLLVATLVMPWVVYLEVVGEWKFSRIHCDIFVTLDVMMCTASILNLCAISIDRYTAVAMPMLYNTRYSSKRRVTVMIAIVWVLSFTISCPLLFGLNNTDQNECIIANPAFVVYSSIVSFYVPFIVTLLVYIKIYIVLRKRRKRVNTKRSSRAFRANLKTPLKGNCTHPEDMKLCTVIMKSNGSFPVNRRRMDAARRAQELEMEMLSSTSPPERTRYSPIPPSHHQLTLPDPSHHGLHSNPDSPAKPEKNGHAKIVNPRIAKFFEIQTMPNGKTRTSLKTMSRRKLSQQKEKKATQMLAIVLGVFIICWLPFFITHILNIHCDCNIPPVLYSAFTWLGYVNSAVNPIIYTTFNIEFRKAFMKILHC", "assay": "Binding affinity towards Dopamine receptor D2 in rat striatal tissue by [3H]spiperone displacement.", "format": "tissue-based, Striatum"}, "D(1A) dopamine receptor": {"target": "D(1A) dopamine receptor (Rattus norvegicus, UniProt P18901)", "sequence (P18901 whole entry)": "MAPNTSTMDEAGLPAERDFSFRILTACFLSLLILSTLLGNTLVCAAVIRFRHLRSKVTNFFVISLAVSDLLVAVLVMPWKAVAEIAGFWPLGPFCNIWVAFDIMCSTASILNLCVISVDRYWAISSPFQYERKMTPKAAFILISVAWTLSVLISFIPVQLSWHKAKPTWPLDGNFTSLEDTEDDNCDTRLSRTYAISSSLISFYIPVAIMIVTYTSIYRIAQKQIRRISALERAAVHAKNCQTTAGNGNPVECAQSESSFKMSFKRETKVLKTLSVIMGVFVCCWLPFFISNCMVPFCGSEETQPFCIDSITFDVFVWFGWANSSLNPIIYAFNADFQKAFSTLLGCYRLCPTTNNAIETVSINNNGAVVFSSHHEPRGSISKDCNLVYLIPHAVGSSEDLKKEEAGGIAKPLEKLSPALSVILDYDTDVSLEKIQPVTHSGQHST", "assay": "Binding affinity towards Dopamine receptor D1 in rat striatal tissue by [3H]-SCH- 23390 displacement.", "format": "tissue-based, Striatum"}, "Rattus norvegicus": {"system": "Rattus norvegicus", "assay": "Minimal dose producing reduction in avoidance responding after sc administration for 1 hr in rat", "format": "functional"}},
  "data": [
    {"smiles": "CCSC1CN(C)CCc2cc(Cl)c(O)cc21", "note": "(centres undefined)", "values": [
      {"measurement": "Ki", "setting": "D(2) dopamine receptor", "value": 2710, "unit": "nM"}
    ]},
    {"smiles": "CCCC1CN(C)CCc2cc(Cl)c(O)cc21", "note": "(centres undefined)", "values": [
      {"measurement": "Ki", "setting": "D(1A) dopamine receptor", "value": 3.3, "unit": "nM"},
      {"measurement": "CAR", "setting": "Rattus norvegicus", "value": 0.3, "unit": "MPK"},
      {"measurement": "Ki", "setting": "D(2) dopamine receptor", "value": 1160, "unit": "nM"}
    ]},
    {"smiles": "CN1CCc2cc(O)c(Cl)cc2CC1", "values": [
      {"measurement": "Ki", "setting": "D(1A) dopamine receptor", "value": 46, "unit": "nM"},
      {"measurement": "CAR", "setting": "Rattus norvegicus", "value": 1, "unit": "MPK"},
      {"measurement": "Ki", "setting": "D(2) dopamine receptor", "value": 265, "unit": "nM"}
    ]},
    {"smiles": "CN1CCc2cc(Cl)c(O)cc2C(N2CCCCC2)C1", "note": "(centres undefined)", "values": [
      {"measurement": "Ki", "setting": "D(1A) dopamine receptor", "value": 100, "unit": "nM"},
      {"measurement": "CAR", "setting": "Rattus norvegicus", "value": 3, "unit": "MPK"},
      {"measurement": "Ki", "setting": "D(2) dopamine receptor", "value": "> 10000", "unit": "nM"}
    ]},
    {"smiles": "CN1CCc2cc(Cl)c(O)cc2C(C2C=CCCC2)C1", "note": "(centres undefined)", "values": [
      {"measurement": "Ki", "setting": "D(1A) dopamine receptor", "value": 2, "unit": "nM"},
      {"measurement": "CAR", "setting": "Rattus norvegicus", "value": 0.3, "unit": "MPK"},
      {"measurement": "Ki", "setting": "D(2) dopamine receptor", "value": 581, "unit": "nM"}
    ]},
    {"smiles": "CN1CCc2cc(Cl)c(O)cc2C(C2CCCC2)C1", "note": "(centres undefined)", "values": [
      {"measurement": "Ki", "setting": "D(1A) dopamine receptor", "value": 13, "unit": "nM"},
      {"measurement": "CAR", "setting": "Rattus norvegicus", "value": 1, "unit": "MPK"},
      {"measurement": "Ki", "setting": "D(2) dopamine receptor", "value": 2050, "unit": "nM"}
    ]},
    {"smiles": "CN1CCc2cc(Cl)c(O)cc2C(C2C=CC=CC=C2)C1", "note": "(centres undefined)", "values": [
      {"measurement": "Ki", "setting": "D(1A) dopamine receptor", "value": 3.7, "unit": "nM"},
      {"measurement": "CAR", "setting": "Rattus norvegicus", "value": 0.1, "unit": "MPK"},
      {"measurement": "Ki", "setting": "D(2) dopamine receptor", "value": 1800, "unit": "nM"}
    ]},
    {"smiles": "CN1CCc2cc(Cl)c(O)cc2C(C2CCCCC2)C1", "note": "(centres undefined)", "values": [
      {"measurement": "CAR", "setting": "Rattus norvegicus", "value": 0.3, "unit": "MPK"},
      {"measurement": "Ki", "setting": "D(2) dopamine receptor", "value": 1780, "unit": "nM"}
    ]},
    {"smiles": "CN1CCc2cc(Cl)c(O)cc2[C@@H](c2ccccc2)C1", "note": "[SCH-23390]", "values": [
      {"measurement": "CAR", "setting": "Rattus norvegicus", "value": 0.02, "unit": "MPK"}
    ]},
    {"smiles": "CCOC1CN(C)CCc2cc(Cl)c(O)cc21", "note": "(centres undefined)", "values": [
      {"measurement": "Ki", "setting": "D(1A) dopamine receptor", "value": 24, "unit": "nM"},
      {"measurement": "CAR", "setting": "Rattus norvegicus", "value": 1, "unit": "MPK"},
      {"measurement": "Ki", "setting": "D(2) dopamine receptor", "value": "> 10000", "unit": "nM"}
    ]},
    {"smiles": "C#CCC1CN(C)CCc2cc(Cl)c(O)cc21", "note": "(centres undefined)", "values": [
      {"measurement": "Ki", "setting": "D(1A) dopamine receptor", "value": 8.7, "unit": "nM"},
      {"measurement": "CAR", "setting": "Rattus norvegicus", "value": 1, "unit": "MPK"},
      {"measurement": "Ki", "setting": "D(2) dopamine receptor", "value": 626, "unit": "nM"}
    ]},
    {"smiles": "CN1CCc2cc(Cl)c(O)cc2C2(CCCC2)C1", "values": [
      {"measurement": "Ki", "setting": "D(1A) dopamine receptor", "value": 23, "unit": "nM"},
      {"measurement": "CAR", "setting": "Rattus norvegicus", "value": 1, "unit": "MPK"},
      {"measurement": "Ki", "setting": "D(2) dopamine receptor", "value": 2250, "unit": "nM"}
    ]},
    {"smiles": "CN1CCc2cc(Cl)c(O)cc2C(C2=CCCC2)C1", "note": "(centres undefined)", "values": [
      {"measurement": "Ki", "setting": "D(1A) dopamine receptor", "value": 5.1, "unit": "nM"},
      {"measurement": "Ki", "setting": "D(2) dopamine receptor", "value": 1540, "unit": "nM"}
    ]},
    {"smiles": "CN1CCc2cc(Cl)c(O)cc2C(C2CCCCCC2)C1", "note": "(centres undefined)", "values": [
      {"measurement": "Ki", "setting": "D(1A) dopamine receptor", "value": 7.6, "unit": "nM"},
      {"measurement": "CAR", "setting": "Rattus norvegicus", "value": 1, "unit": "MPK"},
      {"measurement": "Ki", "setting": "D(2) dopamine receptor", "value": 1190, "unit": "nM"}
    ]},
    {"smiles": "CN1CCc2cc(Cl)c(O)cc2C(C2=CCCCC2)C1", "note": "(centres undefined)", "values": [
      {"measurement": "Ki", "setting": "D(1A) dopamine receptor", "value": 2.1, "unit": "nM"},
      {"measurement": "CAR", "setting": "Rattus norvegicus", "value": 0.1, "unit": "MPK"},
      {"measurement": "Ki", "setting": "D(2) dopamine receptor", "value": 1600, "unit": "nM"}
    ]},
    {"smiles": "CN(C)CCCC1CN(C)CCc2cc(Cl)c(O)cc21", "note": "(centres undefined)", "values": [
      {"measurement": "Ki", "setting": "D(1A) dopamine receptor", "value": "> 1000", "unit": "nM"},
      {"measurement": "Ki", "setting": "D(2) dopamine receptor", "value": "> 100000", "unit": "nM"}
    ]},
    {"smiles": "C=CCC1CN(C)CCc2cc(Cl)c(O)cc21", "note": "(centres undefined)", "values": [
      {"measurement": "Ki", "setting": "D(1A) dopamine receptor", "value": 5.7, "unit": "nM"},
      {"measurement": "CAR", "setting": "Rattus norvegicus", "value": 0.1, "unit": "MPK"},
      {"measurement": "Ki", "setting": "D(2) dopamine receptor", "value": 284, "unit": "nM"}
    ]}
  ]
}
